# Assays:
# HeLa cells = assay: In vitro transfection of HeLa cells, luciferase activity; assay type: cell-based, human; details: for transfection activity: 1.0 to 10.0 nmol of lipid/μg of DNA; for effect of the presence of serum on transfection: with serum (10% FCS)
# Procedure: This study was carried out at 4 different charge ratios: 1.0 or 4.0 or 6.0 or 10.0 nmol of lipid/μg of DNA. Each of these conditions was tested with and without fetal calf serum (“+ or − Serum”)
# Culture of the cells: HeLa cells (American type Culture Collection (ATCC) Rockville, Md., USA) derived from a human cervical epithelium carcinoma, are cultured in the presence of a medium of the MEM (“minimum essential medium”) type with addition of 2 mM L-glutamine, 50 units/ml of penicillin, and 50 units/ml of streptomycin. The medium and the additives are obtained from Gibco/BRL life Technologies (Gaithersburg, Md., USA). The cells are cultured in flasks at 37° C. and at 5% carbon dioxide in an incubator.
# Transfection: a day before the transfection, the HeLa cells are transferred into 24-well plates with a cell number of 30,000 to 50,000 per well. These dilutions represent approximately 80% confluence after 24 hours.
# For the transfection, the cells are washed twice and incubated at 37° C. with 500 μl of medium with serum (10% FCS v/v) or without serum.
# 50 μl of complexes containing 0.5 μg of plasmid DNA are added to each well (the complexes are prepared at least 30 minutes before the addition to the well). After two hours at 37° C., the plates without serum are supplemented with 10% (v/v) of FCS (“Fetal Calf Serum”).
# All the plates are placed for 36 hours at 37° C. and at 5% carbon dioxide.
# Determination of the luciferase activity: Briefly, the transfected cells are washed twice with 500 μl of PBS (phosphate buffer) and then lysed with 250 μl of reagent (Promega cell culture lysis reagent, from the Luciferase Assay System kit).
# An aliquot of 10 μl of supernatant of the lysate centrifuged (12,000×g) for 5 minutes at 4° C. is measured with the Wallac Victor2 luminometer (1420 Multilabel couter).
# The luciferase activity is assayed by the emission of light in the presence of luciferin, of coenzyme A and of ATP for 10 seconds and expressed relative to 2000 treated cells. The luciferase activity is thus expressed as Relative Light Unit (“RLU”: “Relative light unit”) and normalized with the concentration of proteins in the sample obtained using a Pierce BCA kit (Rockford, Ill., USA).
# DNA = assay: Ethidium bromide fluorescence test of DNA compaction and release at pH 5; assay type: physicochemical; details: for variation in fluorescence over time (DNA not completely compacted): 0.4 nmol lipid/μg of DNA
# Excerpt: This can be easily shown by a fluorescence test with ethidium bromide (EtBr): the absence of fluorescence reflects the absence of free DNA, which means that the DNA is compacted.
# In the text which follows, the two forms Syn and Trans of the acid-sensitive compound A as prepared in example 3 were used and the non-acid-sensitive analog described in the publication WO 97/18185, and which has the formula: H2N—(CH2)3—NH—(CH2)4—NH—(CH2)3—NH—CH2—CO-Gly-N[(CH2)17—CH3]2 was used as control. This non-acid-sensitive analog is called in the text which follows “control cationic lipid”.
# The DNA is brought into contact with increasing quantities of control cationic lipid or of acid-sensitive compound A Syn or Trans, by mixing an equal volume of lipid solutions of different titers with the DNA solutions. Samples of 800 μl of DNA complexes having a concentration of 10 μg/ml are thus prepared in a sodium chloride solution at 150 mM with increasing quantities of control cationic lipid or of acid-sensitive compound A Syn or Trans.
# At time t=0, 200 μl of buffer having a concentration of 0.1 mol/l at pH 5 are added to these samples and the samples are stored in an oven at 37° C. The fluorescence with ethidium bromide (EtBr) is measured over time (measurement at 20° C.) using a FluoroMax-2 (Jobin Yvon-Spex), with excitation and emission wavelengths of 260 nm and 590 nm respectively. The slit widths for excitation and for emission are set at 5 nm. The fluorescence value is recorded after addition of 3 μl of ethidium bromide at 1 g/l per ml of DNA/cationic lipid or DNA/acid-sensitive compound solution (at 0.01 mg of DNA/ml).
# [1] = system: DNA/control cationic lipid nucleolipid complexes; assay: Size of nucleolipid particles as a function of pH and time (stability of acid-sensitive compounds); assay type: physicochemical; details: for sensitivity at acidic pH values: pH 4, pH 5, pH 6; for stability at physiological pH: pH 7.4
# Procedure: To this effect, the variation of the size of nucleolipid complexes (identical to those used in examples 9 and 10) is measured as a function of the pH and time, for various acid-sensitive pegoylated lipids, which makes it possible to cover different ranges of sensitivity.
# [2] = system: control cationic lipid/DNA particles; assay: Colloidal stabilization of DNA/control cationic lipid particles, hydrodynamic diameter; assay type: physicochemical; details: as nonionic surfactant for nucleolipid particles
# Excerpt: In the present example, the cationic lipid used is that already used in examples 7 and 8 and described in the publication WO 97/18185 under the formula: H2N—(CH2)3—NH—(CH2)4—NH—(CH2)3—NH—CH2—CO-Gly-N[(CH2)17—CH3]2 (control cationic lipid).
# Compounds C and D prepared in example 5 are used as acid-sensitive pegoylated lipids. As controls, there are used BRIJ 700 (SIGMA) and the pegoylated lipid of formula: [drawing 27] which are non-acid-sensitive analogs of compounds C and D, respectively, and which are known as nonionic surfactants (see for example the publication WO 98/34648). The two controls are used at 10 g/l in water.
# (§1) All these samples have a control cationic lipid/DNA ratio of 1.5 (in nmol of lipid per μg of DNA) and contain increasing quantities of pegoylated lipid (expressed as polymer/DNA weight/weight ratio).
# The measurement of the hydrodynamic diameter is made with a Coulter N4Plus apparatus using plastic cuvettes (four transparent sides) filled with 800 μl of the different solutions containing 0.01 mg of DNA/ml, the measurement being carried out at 90° in unimodal mode.
# [3] = system: Balb/C mice carrying subcutaneous M109 tumors; assay: In vivo gene transfer of DNA/cationic lipid/DOPE complexes, CAT assay
# Procedure: The cationic lipid of formula: [drawing 28] and the neutral lipid DOPE (obtained from Avanti Polar Lipids, Birmingham, Ala.) where it is dissolved in chloroform and then mixed in equimolar quantities.
# Appropriate quantities of compound D were dissolved in chloroform and added to the mixture. The quantities of compound D used are given in mol % of the total quantity of lipid.
# The organic solvent is then evaporated under an argon stream so that a thin lipid film forms at the bottom of the tube. This film is dried under vacuum for at least 1 hour and then rehydrated with a 20 mM HEPES buffer at pH 7.4 and 5% dextrose, at 4° C. for 2 hours. The lipid suspension thus obtained is heated at 50° C. for 30 minutes, and then sonicated for 5 minutes so as to form a homogeneous suspension of liposomes of about 100 nm.
# The DNA used is plasmid DNA containing the CAT gene under the control of a CMV promoter.
# Equivalent volumes of liposome suspension (in appropriate concentration) are rapidly added to a DNA solution while mixing rapidly and vigorously. Overall, 1 μg of DNA forms a complex with 5 nmol of cationic lipid. The complexes formed have a diameter of approximately 100 to 240 nm.
# About 6 week old female Balb/C mice are used in all the experiments. Each mouse receives a subcutaneous injection with 10^6 M109 cells in the right flank. When the tumours reach a size of about 300 mm^3, the mice receive 200 μl of DNA/lipid complexes containing 50 μg of DNA, by intravenous injection. The tissues are removed 24 hours after injection and stored at −70° C. until used.
# The tissues are homogenized using a “FastPrep Cell Disrupter FP120” apparatus (Bio 101/Savant). The samples are then centrifuged at 1 000 revolutions/minute for 5 minutes. The quantity of CAT transgene expressed is determined using a standard CAT ELISA procedure (Roche, Ind.).
# [4] = system: control cationic lipid/DNA nucleolipid particles; assay: Size of nucleolipid particles as a function of time at pH 5; assay type: physicochemical; details: for aggregation of the particles after 4 hours: pH 5, 37° C.
# Procedure: The acid-sensitive pegoylated lipid used in this example is the compound D prepared in example 5, as well as its non-acid-sensitive analog called “Analog D” in the preceding example and in the text which follows.
# as §1
# The size of the particles is measured as a function of time.
"variation in fluorescence over time (DNA not completely compacted) (DNA; pH 5, 37° C.)",Compound,transfection activity (HeLa cells),effect of the presence of serum on transfection (HeLa cells),sensitivity at acidic pH values [1],stability at physiological pH [1],colloidal stabilizing power [2],further results
no significant variation in fluorescence,"CCCCCCCCCCCCCCCCCCN(CCCCCCCCCCCCCCCCCC)C(=O)CCCOC1OCC(CNC(=O)CNCCCNCCCCNCCCN)O1 (stereo not drawn) [Compound A Syn, 4-{4-[(2-{3-[4-(3-amino-propylamino)butylamino]propyl-amino}acetylamino)methyl]-[1,3]dioxolan-2-yloxy}-N,N-dioctadecylbutyramide tetraacetate]",high transfection activity,inhibition of transfection,,,,"release of the DNA over time (increase in fluorescence) (DNA; pH 5, 37° C., 1.7 and 6.0 nmol lipid/μg of DNA): release the DNA over time; time of release of DNA after the addition of acid (DNA; pH 5 and 37° C.): a few hours after the addition of acid"
,"methoxy-(polyethylene glycol 5000)-N-(2-methyl-2-octadecyloxy-[1,3]dioxan-5-yl)amide [Compound E]",,,high sensitivity at acidic pH values,relatively stable at physiological pH,,"start of aggregation of the nucleolipid particles after the acidification ([1]; pH 6, 37° C.): about 1 hour"
no significant variation in fluorescence,"CCCCCCCCCCCCCCCCCCN(CCCCCCCCCCCCCCCCCC)C(=O)CNC(=O)CNCCCNCCCCNCCCN [control cationic lipid, H2N—(CH2)3—NH—(CH2)4—NH—(CH2)3—NH—CH2—CO-Gly-N[(CH2)17—CH3]2, reference compound]",high transfection activity,inhibition of transfection,,,,
,"methoxy-(polyethylene glycol 5000)-(N-(2-octadecyloxy-[1,3]dioxolan-4-ylmethyl)amide [Compound C]",,,high sensitivity at acidic pH values,relatively stable at physiological pH,comparable to that of the stable nonionic surfactants,"duration of stabilization of the nucleolipid particles ([1]; pH 6, 37° C.): at least 4 hours"
,"methoxy-(polyethylene glycol 5000)-N-{2-[17-(1,5-dimethylhexyl)-10,13-dimethyl-2,3,4,7,8,9,10,11,12,13,14,15,16,17-tetradecahydro-1H-cyclopenta[a]-phenanthren-3-yloxy]-[1,3]dioxolan-4-ylmethyl}amide [Compound D]",,,,,comparable to that of the stable nonionic surfactants,"increase of the gene transfer activity specific to the tumors relative to the lungs (factor) ([3]; M109 tumors versus lungs): 40; gene transfer in the tumors ([3]; M109 tumors, intravenous injection, 50 μg of DNA, 24 hours after injection, increasing quantity of pegoylated lipid): gene transfer does not appear to be affected in the tumors; transfection activity in the lungs ([3]; intravenous injection, 50 μg of DNA, tissues 24 hours after injection, increasing quantity of pegoylated lipid): the transfection activity is also inhibited in the lungs; aggregation of the particles after 4 hours ([4]; pegoylated lipid/DNA ratio of 0.5): completely formed into aggregates; aggregation of the particles after 4 hours ([4]; pegoylated lipid/DNA ratio of 1): not at all or only slightly; colloidal stability of the particles at time t=0 ([4]; pH 5, t=0, regardless of the compound/DNA ratio): the same stability"
